One compound from US8476255B2, “Histone deacetylase inhibitors” (Orchid Chemicals & Pharmaceuticals Limited, priority 2007, dated 2013) can be followed below.

The subject of one experiment is NCIH460 (lung) cells. Nature of the experiment: Anti-cancer screen (MTT), NCIH460. Format: cell-based. As to conditions: Homo sapiens, NCI-H460, NCIH460, 48 hours, MTT. In short, it runs like this:
(§1)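 Cells in DMEM with 10% FBS were seeded for 24 h, then exposed for 48 h to compounds at 0.01, 0.1, 1, 10 and 100 μM final, in triplicate. Viability was read by MTT (3 h, A570 after DMSO solubilisation), referenced to a pre-dosing T0 plate, with SAHA as standard.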

For experiment [1], the system named is NCIH460, HCT116 and U251 cells. Nature of the experiment: Anti-cancer screen, mean GI50 over cell lines. Particulars: mean over cell lines; read-out: Cell growth inhibition Mean GI50. Format: cell-based. The essentials: as §1
For a further experiment, the system named is HCT 116 (colon) cells. Nature of the experiment: Anti-cancer screen (MTT), HCT 116. Format: cell-based. As to conditions: Homo sapiens, HCT-116, HCT116, 48 hours, MTT. In short, it runs like this:
as §1

For experiment [2], the system named is HDAC (Mouse Liver Extract). Nature of the experiment: HDAC inhibition assay using Boc-Lys(Ac)-AMC substrate. Format: biochemical. Particulars: mouse liver enzyme. In short, it runs like this: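 Boc-Lys(Ac)-AMC substrate incubated with mouse liver extract as HDAC source, 5 min preincubation then 30 min at 37° C. Trypsin stop solution added (37° C., 15-30 min) to release AMC, read at ex 360/em 460 nm; buffer-only and substrate-only wells as blanks.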

A further experiment has as its system U251 (glioma) cells. Nature of the experiment: Anti-cancer screen (MTT), U251. Format: cell-based. As to conditions: Homo sapiens, U-251, U251, 48 hours, MTT. The essentials:
as §1

In a further experiment the test system is Acetylated histone (H3). Nature of the experiment: Histone (H3) acetylation, sandwich ELISA in HCT116 lysate. Format: cell-based. As to conditions: HCT116, 4 hours. As to the method:
Acetylated histone (H3), acetylated Tubulin and p21 levels were detected in cell lysate by sandwich ELISA method (Cell Signaling Technology, USA, Cat No: 7232, 7204 & 7167 respectively) by following manufacturer's instructions. Briefly, colon cancer cells (HCT116. 10,000/well) were incubated with test compound (1 and 10 μM) or medium (control) for 4 hours at 37° C. in CO2 incubator. The incubation lasted 18 hours for p21 induction. After incubation, cell lysates were prepared in cell lysis buffer by sonication on ice. The lysates were collected after centrifugation and subjected to ELISA test procedure. 100 μL of each diluted cell lysate in dilution buffer (1:1) was added to appropriate capture antibody coated microwells and incubated overnight at 4° C. After washing, 100 μL of detection antibody was added for 1 hour at 37° C. After second washing, 100 μL of HRP-linked secondary antibody was added for 30 min at 37° C. Finally, after appropriate washing, 100 μL of TMB substrate was added for 10 min at 37° C. followed by 100 μL of stop solution. The absorbance of individual wells was read using a spectrophotometer at 450 nm (A450).
(In general: ELISA stands for enzyme-linked immunosorbent assay.)

In the next experiment the target is recombinant HDAC1 enzyme (Homo sapiens (Human), UniProt Q13547). The experiment is described as follows: HDAC1 inhibitory activity (isoform selectivity). Format: biochemical. As to conditions: read-out: HDAC1 inhibition (IC50). The procedure: The assay was carried out, as previously described using recombinant HDAC1 enzyme (BIOMOL, USA) and following manufacturer's instructions.
Sequence of recombinant HDAC1 enzyme (Q13547 whole entry, canonical isoform): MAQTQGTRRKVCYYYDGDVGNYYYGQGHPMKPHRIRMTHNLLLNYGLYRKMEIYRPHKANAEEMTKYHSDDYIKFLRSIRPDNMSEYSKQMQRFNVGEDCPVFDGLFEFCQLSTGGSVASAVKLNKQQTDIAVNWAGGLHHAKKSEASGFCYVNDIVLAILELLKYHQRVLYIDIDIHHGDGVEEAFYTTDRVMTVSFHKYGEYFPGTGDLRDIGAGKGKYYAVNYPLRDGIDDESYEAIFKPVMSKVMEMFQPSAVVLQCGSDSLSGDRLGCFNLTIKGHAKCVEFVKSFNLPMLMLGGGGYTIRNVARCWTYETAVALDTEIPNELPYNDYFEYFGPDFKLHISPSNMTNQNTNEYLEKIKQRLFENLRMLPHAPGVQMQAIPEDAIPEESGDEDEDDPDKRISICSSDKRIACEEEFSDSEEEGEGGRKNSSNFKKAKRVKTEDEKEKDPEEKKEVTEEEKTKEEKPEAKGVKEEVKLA

Broadly, the GI50 is the concentration that inhibits growth by half. Broadly, the LC50 is the concentration that kills 50% of the test population. In general, IC50 refers to the concentration that inhibits the measured activity by half.

In the case of `COc1ccc(/C=C(/C(=O)NCc2ccc(C(=O)Nc3ccccc3N)cc2)c2ccc(F)cc2)cc1OC` [Compound 19, N-(2-Aminophenyl)-4-((3-(3,4-dimethoxyphenyl)-2-(4-fluorophenyl)acrylamido)methyl)benzamide], the GI50 with NCIH460 (lung) cells (read-out: Cell growth inhibition NCIH460 (Lung) GI50) came to 2.5 µM; in experiment [1], 1 µM; in the experiment on HCT 116 (colon) cells (read-out: Cell growth inhibition HCT116 (Colon) GI50), 0.3 µM; in the experiment on U251 (glioma) cells (read-out: Cell growth inhibition U251 (Glioma) GI50) it was 0.3 µM. In addition, in the experiment on NCIH460 (lung) cells (read-out: Cell growth inhibition NCIH460 (Lung) LC50), the LC50 came out at 70 µM. In addition, the results for the IC (TGI) in the experiment on NCIH460 (lung) cells (read-out: Cell growth inhibition NCIH460 (Lung) TGI), with HCT 116 (colon) cells (read-out: Cell growth inhibition HCT116 (Colon) TGI) and in the experiment on U251 (glioma) cells (read-out: Cell growth inhibition U251 (Glioma) TGI) were 8 µM, 5 µM and 1.8 µM, respectively. Besides, the CC50 in the experiment with HCT 116 (colon) cells (read-out: Cell growth inhibition HCT116 (Colon) LC50) is 58 µM. In addition, the “HDAC inhibition % (1 μM)” value in experiment [2] (1 μM) was 29.7%. The “HDAC inhibition % (10 μM)” value in experiment [2] (10 μM) worked out at 52.9%. The IC50 was 8.6 µM in experiment [2] and 0.042 µM at recombinant HDAC1 enzyme. Moreover, in the experiment with U251 (glioma) cells (read-out: Cell growth inhibition U251 (Glioma) LC50), the LC50 (concentration giving 50% net cell kill relative to the time-zero cell count) turned out to be 4.8 µM. Moreover, the “H3 acetylation (Fold increase)” value in the experiment on Acetylated histone (H3) (1 μM) was 4 Fold increase; in the experiment with Acetylated histone (H3) (10 μM), 16 Fold increase.
